# Measurements from the supplement of paper PMC10307832.
# Columns and labels:
# Assay in all cases: relative viability (nuclei count vs DMSO), 5 days (fraction); higher = more cells survive
# NCI-H2023 = system: NCI-H2023
# Outline: (§1)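 Relative viability was taken as the ratio of nuclei in treated wells to nuclei in vehicle wells. Lung cancer cell lines in 1536-well plates received compounds by pin tool one day after seeding, either one drug alone or a fixed anchor-drug dose plus five library-drug doses (not always all listed) in √10 steps. Nuclei were counted on 4× images after 5 days of treatment, and values are medians of duplicate plates.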
# NCI-H647 = system: NCI-H647
# Outline: as §1
# H3255 = system: H3255
# Outline: as §1
# NCI-H2347 = system: NCI-H2347
# Outline: as §1
# NCI-H2085 = system: NCI-H2085
# Outline: as §1
# SK-LU-1 = system: SK-LU-1
# Outline: as §1
# PC-14 = system: PC-14
# Outline: as §1
# NCI-H727 = system: NCI-H727
# Outline: as §1
# NCI-H2009 = system: NCI-H2009
# Outline: as §1
# NCI-H1993 = system: NCI-H1993
# Outline: as §1
# SW 1573 = system: SW 1573
# Outline: as §1
# EMC-BAC-2 = system: EMC-BAC-2
# Outline: as §1
# LXF-289 = system: LXF-289
# Outline: as §1
# NCI-H2126 = system: NCI-H2126
# Outline: as §1
# NCI-H322M = system: NCI-H322M
# Outline: as §1
# HOP-62 = system: HOP-62
# Outline: as §1
# LCLC-97TM1 = system: LCLC-97TM1
# Outline: as §1
# NCI-H1915 = system: NCI-H1915
# Outline: as §1
# EPLC-272H = system: EPLC-272H
# Outline: as §1
# NCI-H1734 = system: NCI-H1734
# Outline: as §1
# NCI-H661 = system: NCI-H661
# Outline: as §1
smiles,measurement,setting,value
Cc1sc2c(c1C)C(c1ccc(Cl)cc1)=N[C@@H](CC(=O)OC(C)(C)C)c1nnc(C)n1-2 [JQ1] + CC(=O)Nc1cccc(-n2c(=O)n(C3CC3)c(=O)c3c(Nc4ccc(I)cc4F)n(C)c(=O)c(C)c32)c1 [Trametinib] (partner 0.02 µM),relative viability,NCI-H2023; first compound 0.04 µM,0.472
same,relative viability,NCI-H2023; first compound 0.1265 µM,0.394
same,relative viability,NCI-H2023; first compound 0.4 µM,0.248
same,relative viability,NCI-H2023; first compound 1.265 µM,0.162
same,relative viability,NCI-H2023; first compound 4 µM,0.137
same,relative viability,NCI-H647; first compound 0.04 µM,0.403
same,relative viability,NCI-H647; first compound 0.1265 µM,0.326
same,relative viability,NCI-H647; first compound 0.4 µM,0.214
same,relative viability,NCI-H647; first compound 1.265 µM,0.126
same,relative viability,NCI-H647; first compound 4 µM,0.0652
same,relative viability,H3255; first compound 0.04 µM,0.58
same,relative viability,H3255; first compound 0.4 µM,0.452
same,relative viability,H3255; first compound 1.265 µM,0.345
same,relative viability,H3255; first compound 4 µM,0.322
same,relative viability,NCI-H2347; first compound 0.04 µM,0.275
same,relative viability,NCI-H2347; first compound 0.1265 µM,0.294
same,relative viability,NCI-H2347; first compound 0.4 µM,0.276
same,relative viability,NCI-H2347; first compound 1.265 µM,0.24
same,relative viability,NCI-H2347; first compound 4 µM,0.258
same,relative viability,NCI-H2085; first compound 0.04 µM,0.376
same,relative viability,NCI-H2085; first compound 0.1265 µM,0.551
same,relative viability,NCI-H2085; first compound 0.4 µM,0.407
same,relative viability,NCI-H2085; first compound 1.265 µM,0.248
same,relative viability,NCI-H2085; first compound 4 µM,0.239
same,relative viability,SK-LU-1; first compound 0.04 µM,0.509
same,relative viability,SK-LU-1; first compound 0.1265 µM,0.444
same,relative viability,SK-LU-1; first compound 0.4 µM,0.434
same,relative viability,SK-LU-1; first compound 1.265 µM,0.359
same,relative viability,SK-LU-1; first compound 4 µM,0.195
same,relative viability,PC-14; first compound 0.04 µM,0.862
same,relative viability,PC-14; first compound 0.1265 µM,0.174
same,relative viability,PC-14; first compound 0.4 µM,0.515
same,relative viability,PC-14; first compound 1.265 µM,0.26
same,relative viability,PC-14; first compound 4 µM,0.182
same,relative viability,NCI-H727; first compound 0.04 µM,0.403
same,relative viability,NCI-H727; first compound 0.1265 µM,0.421
same,relative viability,NCI-H727; first compound 0.4 µM,0.381
same,relative viability,NCI-H727; first compound 1.265 µM,0.365
same,relative viability,NCI-H727; first compound 4 µM,0.401
same,relative viability,NCI-H2009; first compound 0.04 µM,0.234
same,relative viability,NCI-H2009; first compound 0.1265 µM,0.197
same,relative viability,NCI-H2009; first compound 0.4 µM,0.173
same,relative viability,NCI-H2009; first compound 1.265 µM,0.15
same,relative viability,NCI-H2009; first compound 4 µM,0.135
same,relative viability,NCI-H1993; first compound 0.04 µM,0.465
same,relative viability,NCI-H1993; first compound 0.1265 µM,0.461
same,relative viability,NCI-H1993; first compound 0.4 µM,0.541
same,relative viability,NCI-H1993; first compound 1.265 µM,0.542
same,relative viability,NCI-H1993; first compound 4 µM,0.57
same,relative viability,SW 1573; first compound 0.04 µM,0.422
same,relative viability,SW 1573; first compound 0.1265 µM,0.357
same,relative viability,SW 1573; first compound 0.4 µM,0.277
same,relative viability,SW 1573; first compound 1.265 µM,0.189
same,relative viability,SW 1573; first compound 4 µM,0.187
same,relative viability,EMC-BAC-2; first compound 0.04 µM,0.935
same,relative viability,EMC-BAC-2; first compound 0.4 µM,0.881
same,relative viability,EMC-BAC-2; first compound 1.265 µM,0.586
same,relative viability,EMC-BAC-2; first compound 4 µM,0.366
same,relative viability,LXF-289; first compound 0.04 µM,0.641
same,relative viability,LXF-289; first compound 0.1265 µM,0.698
same,relative viability,LXF-289; first compound 0.4 µM,0.676
same,relative viability,LXF-289; first compound 1.265 µM,0.607
same,relative viability,LXF-289; first compound 4 µM,0.477
same,relative viability,NCI-H2126; first compound 0.04 µM,0.521
same,relative viability,NCI-H2126; first compound 0.1265 µM,0.549
same,relative viability,NCI-H2126; first compound 0.4 µM,0.486
same,relative viability,NCI-H2126; first compound 1.265 µM,0.368
same,relative viability,NCI-H2126; first compound 4 µM,0.416
same,relative viability,NCI-H322M; first compound 0.04 µM,0.555
same,relative viability,NCI-H322M; first compound 0.1265 µM,0.644
same,relative viability,NCI-H322M; first compound 0.4 µM,0.45
same,relative viability,NCI-H322M; first compound 1.265 µM,0.334
same,relative viability,NCI-H322M; first compound 4 µM,0.539
same,relative viability,HOP-62; first compound 0.04 µM,0.307
same,relative viability,HOP-62; first compound 0.1265 µM,0.262
same,relative viability,HOP-62; first compound 0.4 µM,0.156
same,relative viability,HOP-62; first compound 1.265 µM,0.119
same,relative viability,HOP-62; first compound 4 µM,0.106
same,relative viability,LCLC-97TM1; first compound 0.04 µM,0.187
same,relative viability,LCLC-97TM1; first compound 0.1265 µM,0.149
same,relative viability,LCLC-97TM1; first compound 0.4 µM,0.189
same,relative viability,LCLC-97TM1; first compound 1.265 µM,0.102
same,relative viability,LCLC-97TM1; first compound 4 µM,0.102
same,relative viability,NCI-H1915; first compound 0.04 µM,0.281
same,relative viability,NCI-H1915; first compound 0.4 µM,0.317
same,relative viability,NCI-H1915; first compound 1.265 µM,0.237
same,relative viability,NCI-H1915; first compound 4 µM,0.2
same,relative viability,EPLC-272H; first compound 0.04 µM,0.278
same,relative viability,EPLC-272H; first compound 0.1265 µM,0.252
same,relative viability,EPLC-272H; first compound 0.4 µM,0.273
same,relative viability,EPLC-272H; first compound 1.265 µM,0.254
same,relative viability,EPLC-272H; first compound 4 µM,0.215
same,relative viability,NCI-H1734; first compound 0.04 µM,0.685
same,relative viability,NCI-H1734; first compound 0.1265 µM,0.688
same,relative viability,NCI-H1734; first compound 0.4 µM,0.644
same,relative viability,NCI-H1734; first compound 1.265 µM,0.462
same,relative viability,NCI-H1734; first compound 4 µM,0.491
same,relative viability,NCI-H661; first compound 0.04 µM,0.554
same,relative viability,NCI-H661; first compound 0.1265 µM,0.451
same,relative viability,NCI-H661; first compound 0.4 µM,0.508
same,relative viability,NCI-H661; first compound 1.265 µM,0.46
same,relative viability,NCI-H661; first compound 4 µM,0.441
